In patent publication US20250026747A1, “COLIBACTIN DERIVATIVES AND METHODS OF TREATING, AMELIORATING, AND/OR PREVENTING CANCER” (priority 2021, published 2025):

Columns and labels:
linearized pUC19 DNA = test: DNA cross-linking assay with linearized pUC19 DNA, denaturing agarose gel electrophoresis; format: biochemical; conditions: linearized pUC19 DNA, pH 7.0, 1 nM-100 μM
Description: FIGS. 6A-6C depict the DNA crosslinking ability of several compounds according to some embodiments. The DNA cross-linking assays employ linear pUC19 DNA. DMSO was used as vehicle (negative control), and 100 μM cisplatin was used as positive controls. The DNA was analyzed by 0.4% NaOH denaturing and agarose gel electrophoresis (90 V, 1.5 h). FIG. 6A depicts the DNA cross-linking comparison of colibactin 770 (3a), stable colibactin 742 (4), and its linear precursor 9 at pH 5.0. FIG. 6B depicts the comparison of the relative DNA cross-linking abilities of colibactin 742 (4) and its linear precursor 9 at pH 5.0. FIG. 6C depicts the comparison of the relative DNA cross-linking abilities of colibactin 742 (4) and its linear precursor 9 at pH 7.0.
FIG. 10 depicts the DNA cross-linking assay employing linear pUC19 DNA and synthetic colibactin (3), 9, and colibactin 742 (4) according to some embodiments. Specifically, 5% DMSO was used as vehicle (negative control), and 100 μM cisplatin was used as positive control. DNA ladder (Lane #1); 5% DMSO (Lane #2); 100 μM cisplatin (Lane #3); 200 μM colibactin (3) (Lane #4); 100 μM colibactin (3) (Lane #5); 10 μM colibactin (3) (Lane #6); 1 μM colibactin (3) (Lane #7); 200 μM 9 (Lane #8); 100 μM 9 (Lane #9); 10 μM 9 (Lane #10); 1 μM 9 (Lane #11); 200 μM colibactin 742 (4) (Lane #12); 100 μM colibactin 742 (4) (Lane #13); 10 μM colibactin 742 (4) (Lane #14); 1 μM colibactin 742 (4) (Lane #15). Conditions (Lane #3): linearized pUC19 DNA (15.4 μM in base pairs), 5% DMSO (vehicle), 100 μM cisplatin, 10 mM citric buffer, pH 5.0, 4 h, 37° C. Conditions (Lanes #4-#7): linearized pUC19 DNA (15.4 μM in base pairs), colibactin (3) (200 μM-1 μM), 5% DMSO, 10 mM citric buffer, pH 5.0, 4 h, 37° C. Conditions (Lanes #8-#11): linearized pUC19 DNA (15.4 μM in base pairs), 9 (200 μM-1 μM), 5% DMSO, 10 mM citric buffer, pH 5.0, 4 h, 37° C. Conditions (Lanes #12-#15): linearized pUC19 DNA (15.4 μM in base pairs), colibactin 742 (4) (200 μM-1 μM), 5% DMSO, 10 mM citric buffer, pH 5.0, 4 h, 37° C. The DNA was analyzed by native, 0.2% NaOH, 0.4% NaOH, and 1% NaOH denaturing agarose gel electrophoresis (90 V, 1.5 h). Linear=linearized DNA in native form, linear-denat.=linearized DNA in denaturing form, linear-XL=linerized DNA cross-linked by colibactins or cisplatin.
FIG. 11 depicts the DNA cross-linking assay employing linear pUC19 DNA and synthetic colibactin fragments 23, 24, and 22. Specifically, 5% DMSO was used as vehicle (negative control), and 100 μM cisplatin was used as positive control. DNA ladder (Lane #1); 5% DMSO (Lane #2); 100 μM cisplatin (Lane #3); 500 μM 23 (Lane #4); 100 μM 23 (Lane #5); 10 μM 23 (Lane #6); 1 μM 23 (Lane #7); 100 nm 23 (Lane #8); 500 μM 24 (Lane #9); 100 μM 24 (Lane #10); 10 μM 24 (Lane #11); 1 μM 24 (Lane #12); 100 nm 24 (Lane #13); 500 μM 22 (Lane #14); 100 μM 22 (Lane #15); 10 μM 22 (Lane #16); 1 μM 22 (Lane #17); 100 nm 22 (Lane #18). Conditions (Lane #2): linearized pUC19 DNA (15.4 μM in base pairs), 5% DMSO (vehicle), 10 mM citric buffer, pH 5.0, 4 h, 37° C. Conditions (Lane #3): linearized pUC19 DNA (15.4 μM in base pairs), 5% DMSO (vehicle), 100 μM cisplatin, 10 mM citric buffer, pH 5.0, 4 h, 37° C. Conditions (Lanes #4-#8): linearized pUC19 DNA (15.4 μM in base pairs), 23 (500 μM-100 nM), 5% DMSO, 10 mM citric buffer, pH 5.0, 4 h, 37° C. Conditions (Lanes #9-#13): linearized pUC19 DNA (15.4 μM in base pairs), 24 (500 μM-1 μM), 5% DMSO, 10 mM citric buffer, pH 5.0, 4 h, 37° C. Conditions (Lanes #14-#18): linearized pUC19 DNA (15.4 μM in base pairs), 22 (500 μM-100 nM), 5% DMSO, 10 mM citric buffer, pH 5.0, 4 h, 37° C. The DNA was analyzed by native, 0.2% NaOH, 0.4% NaOH, and 1% NaOH denaturing agarose gel electrophoresis (90 V, 1.5 h). Linear=linearized DNA in native form, linear-denat.=linearized DNA in denaturing form, linear-XL=DSB/linerized DNA cross-linked by colibactins or cisplatin. […]

[1] = Stability of colibactin 770 in aqueous buffer (LC-MS time course); format: physicochemical
Description: FIG. 9 depicts the percentage of colibactin 770 (M+Na) over time at pH 7.4, 37° C. according to some embodiments. Specifically, the linear precursor to colibactin 770 (nominally 404 nmol), prepared according to Xu et al. (Science 2019, 365) was dissolved in DMSO (100 μL) and the resulting solution was diluted with PBS buffer (400 μL) at 22° C. This solution was immediately warmed to 37° C. in a preheated water bath. Aliquots (15 μL) were taken at 0 min, 5 min, 10 min, 15 min, 30 min, 60 min, 120 min, 180 min, 240 min, 300 min, and 480 min. Each aliquot was dissolved in acetonitrile (150 μL) and then immediately frozen in liquid nitrogen. The frozen aliquots were stored at −78° C. until the time course was complete. Aliquots were quickly thawed and analyzed using a Shimadzu Scientific Instruments QToF 9030 LC-MS system, equipped with a Nexera LC-40D xs UHPLC, consisting of a CBM-40 Lite system controller, a DGU-405 Degasser Unit, two LC-40D XS UHPLC pumps, a SIL-40C XS autosampler and a Column Oven CTO-40S. UV data was collected with a Shimadzu Nexera HPLC/UHPLC Photodiode Array Detector SPD M-40 in the range of 190-800 nm. Mass spectra were recorded with the quadrupole time-of-flight (QToF) 9030 mass spectrometer. The samples were held at 4° C. in the autosampler compartment. […]

eukaryotic cells = test: Genotoxicity of synthetic colibactin 770 in eukaryotic cells; format: cell-based; conditions: eukaryotic cells treated with the synthetic compound

## C[C@H]1CCC(C2=C(CC(=O)NCC(=O)c3csc(C(=O)C(=O)c4csc(CNC(=O)CC5=C(C6=N[C@@H](C)CC6)C(=O)NC56CC6)n4)n3)C3(CC3)NC2=O)=N1 [colibactin 770 (3a)]
Linearized pUC19 DNA
  DNA interstrand cross-link (ICL) formation: fails to produce detectable levels of ICLs
[1]; pH 7.0
  stability at pH 7.0: readily decomposes
[1]; pH 7.4, 37° C.
  time to degradation in aqueous buffer: ≤ 2 h
Eukaryotic cells
  genotoxicity: no genotoxicity was observed
